Source: US20240180800A1, “Oral Care Compositions Containing Stannous Ion Source” (Colgate-Palmolive Company, priority 2022, published 2024)
One block for each molecule: values may come before it.

Experiments:
Type in all cases: physicochemical
[1] = FTIR of SnF2-TSPP solution with antioxidant upon aging at 60° C.
Protocol: (§1) The effect of antioxidants on the stannous stability in the presence of tetrasodium pyrophosphate (TSPP) was examined. Samples of Sn(II) were prepared by dissolving TSPP and SnF2 in water with the final concentration of SnF2 equal to 2 wt. %. Antioxidant (butylated hydroxytoluene (BHT), butylated hydroxyanisole (BHA), or sodium ascorbyl phosphate (SAP)) was added to the samples with the molar ratio of SnF2:TSPP:antioxidant equal to 1:1:0.3. The pH of the solutions was adjusted with NaOH to pH 7. The solutions were not fully clear due to the high concentration of SnF2 and limited solubility of certain antioxidants. Some amount of the precipitate/undissolved material was evident in the vials.
Fourier transform infrared spectroscopy (FTIR): Infrared spectra were collected using a Bruker Vertex 70 FTIR spectrometer (Bruker Optics, Billerica, MA) equipped with a GladiATR diamond ATR accessory (Pike technologies, Madison, WI). The spectral range was […] and a resolution of 4 cm^−1 was used. All measurements were carried out at room temperature. The absorption spectrum of solution containing SnF2 and TSPP (herein after referred to as SnF2-TSPP) in the 850-1240 cm^−1 region at different time points: fresh, 1 week and 2 weeks aged at 60° C. was examined. […] The transformation of the complex was manifested in the peak shifts and intensity changes of phosphate bands. […]

[2] = Iodine titration of Sn(II) in SnF2-TSPP solution with antioxidant upon aging at 60° C.; conditions: for Sn(II) %: after 2 weeks of aging at 60° C.
Protocol: as §1
Iodine titration: The stability of Sn (II) was further examined by iodine titration assay. Titration measurements were performed through indirect titration. 2 M citric acid solution was added to the samples in excess and 0.1 N Iodine was added until the solutions turned light brown. The samples were covered with parafilm and aluminum foil and left mixing in the dark for 2 hours. Then, titration with 0.1 N sodium thiosulfate standard was performed using a 25 mL Titrette Bottletop Burette (BrandTech Scientific, Inc., Essex, CT, USA) until the solutions turned clear. Sn(II) concentration was calculated based on the amount of sodium thiosulfate and iodine used in the reaction. The amount of Sn(II) present in the SnF2-TSPP solution at different time points: fresh, 1 week and 2 weeks aged at 60° C. with and without the antioxidant (SAP, BHA, or BHT) was measured. The result is in good agreement with the FTIR result discussed above. The amount of Sn(II) was highest in the sample with SAP after 2 weeks of 60° C. aging.
(§2) In order to identify the optimal concentration of antioxidants (SAP and sodium ascorbate) that can increase stannous stability in aqueous solutions, samples of Sn(II) with TSPP and various concentrations of SAP or sodium ascorbate were tested for the stability of Sn(II). Samples of Sn(II) were prepared by dissolving TSPP and SnF2 in water with the final concentration of SnF2 equal to 2 wt %. Antioxidant (SAP or sodium ascorbate) was added to the samples with the molar ratio of SnF2:TSPP:antioxidant equal to 1:1:x, where x was between 0.05 and 0.3. The pH of the solutions was adjusted with NaOH to pH=7.
Iodine titration: The stability of Sn (II) was further examined by iodine titration assay. Titration measurements were performed as described in Example 1.

[3] = 119Sn NMR relative amount of Sn(II) in SnF2-TSPP solution with antioxidant upon aging at 60° C.; conditions: for Sn(II) left relative to fresh sample: SnF2:TSPP:antioxidant 1:1:0.3, pH 7, after 2 weeks of aging at 60° C.; for Sn(II) content relative to fresh sample: pH 7, after 2 weeks of aging at 60° C.
Protocol: as §1
Nuclear Magnetic Resonance (NMR): The stability of Sn (II) was further examined by Nuclear Magnetic Resonance (NMR). NMR measurements were performed on samples in the presence of 10% deuterium oxide (D20). All NMR spectra were acquired on a Bruker Avance spectrometer (Bruker-Biospin, Billerica, MA, USA) with a 5 mm liquid nitrogen cryogenic probe operating at 202 MHz for ^31P, and 186.5 MHz ^119Sn at 25° C. ^119Sn and ^31P NMR spectra were acquired on the samples of SnF2-TSPP with three antioxidants: SAP, BHA, or BHT. FIG. 3-5 show ^119Sn and ^31P NMR spectra of the samples upon aging. In the ^119Sn NMR spectra, the peak positioned at around −630 ppm corresponds to Sn(II) in solution at neutral pH. Once Sn(II) was oxidized to Sn(IV) upon aging, the Sn(II) peak intensity decreased and small Sn(IV) spikes appeared between −680 and −750 ppm. The relative amounts of Sn(II) compared to fresh sample were calculated by integrating the peak corresponding to Sn(II) in ^119Sn NMR spectra. The capacity of three […] to stabilize Sn(II) was compared by measuring the Sn(II) content in the samples. About 80% of Sn(II) was left in the samples in the presence of BHA and SAP after 2 weeks of aging at 60° C. BHT sample had 70% Sn(II) remaining after 2 weeks of aging. […] In the ^31P NMR spectra, the peak positioned at −8 ppm corresponds to TSPP.
as §2
Nuclear Magnetic Resonance (NMR): The stability of Sn (II) was further examined by Nuclear Magnetic Resonance (NMR). NMR measurements were performed as described in Example 1. ^119Sn and ^31P NMR spectra were acquired on the samples of SnF2-TSPP with SAP or sodium ascorbate at various SAP/Sn molar ratios, specifically between 0.05 and 0.3, upon aging at 60° C. FIGS. 9 and 10 show ^119Sn and ^31P NMR spectra of the samples upon aging. In the ^119Sn NMR spectra, the peak positioned at around −630 ppm corresponds to Sn(II) in solution at neutral pH. Once Sn(II) was oxidized to Sn(IV), the Sn(II) peak intensity decreased and small Sn(IV) spikes appeared between −680 and −750 ppm. […] The relative amounts of Sn(II) compared to fresh sample were quantified based on the Sn(II) NMR peak integral (FIG. 11A).

[4] = Head-space O2 consumption (differential pressure) during Sn(II) oxidation; conditions: 29 mM SnF2, 29 mM TSPP, SAP/Sn molar ratios 0.05 and 0.3, 25° C., about 6.5 hours, pH about 6.5
Protocol: Head-space O2 consumption: Stannous stability in presence of small amounts of SAP was further examined by measuring the rate of oxygen consumption during Sn(II) oxidation process. […] SnF2 was added last as a powder, and the flask was immediately scaled.

SMILES: COc1ccc(O)c(C(C)(C)C)c1 [BHA, butylated hydroxyanisole]
- change of phosphate vibrational bands / stability of stannous-pyrophosphate complex ([1]; SnF2:TSPP:antioxidant 1:1:0.3, pH 7, aged 2 weeks at 60° C.): improved the stability of stannous-pyrophosphate complex but were less effective than SAP
- amount of Sn(II) remaining ([2]; SnF2:TSPP:antioxidant 1:1:0.3, pH 7, after 2 weeks of 60° C. aging, compared to SnF2-TSPP solution alone): positive effect on Sn(II) stability
- Sn(II) left relative to fresh sample [3]: About 80%

- amount of Sn(II) remaining ([2]; buffer, 336 h, pH 7): positive effect on Sn(II) stability
- Sn(II) left relative to fresh sample [3]: 70%
SMILES: Cc1cc(C(C)(C)C)c(O)c(C(C)(C)C)c1 [BHT, butylated hydroxytoluene]

- amount of Sn(II) remaining ([2]; buffer, 336 h, pH 7): highest
- Sn(II) left relative to fresh sample [3]: About 80%
- Sn(II) content relative to fresh sample ([3]; higher SAP/Sn ratio (0.2, 0.3)): 72%
- Sn(II) content relative to fresh sample ([3]; lower mole ratio of SAP/Sn (0.05, 0.1)): about 90%
- head-space differential pressure change (O2 consumption) [4]: no significant pressure drop
SMILES: O=C1O[C@H]([C@@H](O)CO)C([O-])=C1OP(=O)([O-])[O-].[Na+].[Na+].[Na+] [SAP, sodium ascorbyl phosphate]

SMILES: O=C1O[C@H]([C@@H](O)CO)C([O-])=C1O.[Na+] [sodium ascorbate]
- stability of stannous-pyrophosphate complex ([1]; antioxidant/Sn molar ratio 0.05 to 0.3, pH 7, fresh, 1 week and 2 weeks at 60° C.): increased the stability of the stannous-pyrophosphate complex
- Sn(II) % ([2]; higher ascorbate/Sn ratio (0.2, 0.3)): 70-75%
- Sn(II) % ([2]; lower ascorbate/Sn ratio (0.05, 0.1)): about 80%
